Patent US8592422B2, “Bicyclic triazole and pyrazole lactams as allosteric modulators of mGluR5 receptors” (Vanderbilt University, priority 2010, dated 2013)

Biological target: T1, human mGluR5a receptor (Homo sapiens, UniProt P41594)
T1 construct: cDNA subcloned into pcDNA3.1(-)
Experiment: Cell-based functional Ca2+ mobilization assay (FDSS), potentiation of glutamate EC20 response
Conditions: for pEC50 / EC50: HEK cells transfected with human mGluR5 (H10H or H12H), in presence of EC20 glutamate; for EC50: read-out: EC50; for Emax (%) / Emax: maximum % effect in concentration-response curve, as percent of response to maximally effective glutamate
Protocol: Human embryonic kidney (HEK) cells transfected with rat mGluR5 were plated in clear bottom assay plates for assay in a Functional Drug Screening System (FDSS). In the alternative assay, HEK cells transfected with human mGluR5 were plated for assay in the FDSS. In some cases the HEK cells transfected with human mGluR5 were the H10H cell line. Alternatively, the HEK cells transfected with human mGluR5 were the H12H cell line. […] The cells were loaded with a Ca^2+-sensitive fluorescent dye (e.g., Fluo-4), and the plates were washed and placed in the FDSS instrument. After establishment of a fluorescence baseline for twelve seconds, the compounds of the present invention were added to the cells, and the response in cells was measured. Alternatively, in various further aspects, after establishment of a fluorescence baseline for about three seconds, the compounds of the present invention were added to the cells, and the response in cells was measured. Five minutes later, an mGluR5 agonist (e.g., glutamate, 3,5-dihydroxyphenylglycine, or quisqualate) was added to the cells, and the response of the cells was measured.
The above described assay operated in two modes. In the first mode, a range of concentrations of the present compounds were added to cells, followed by a single fixed concentration of agonist. If a compound acted as a potentiator, an EC50 value for potentiation and a maximum extent of potentiation by the compound at this concentration of agonist was determined by non-linear curve fitting. In the second mode, several fixed concentrations of the present compounds were added to various wells on a plate, followed by a range of concentrations of agonist for each concentration of present compound; the EC50 values for the agonist at each concentration of compound were determined by non-linear curve fitting. A decrease in the EC50 value of the agonist with increasing concentrations of the present compounds (a leftward shift of the agonist concentration-response curve) is an indication of the degree of mGluR5 potentiation at a given concentration of the present compound. An increase in the EC50 value of the agonist with increasing concentrations of the present compounds (a rightward shift of the agonist concentration-response curve) is an indication of the degree of mGluR5 antagonism at a given concentration of the present compound. The second mode also indicates whether the present compounds also affect the maximum response to mGluR5 to agonists.
The mGluR5 activity was determined using the metabotropic glutamate receptor activity assays in human embryonic kidney cells as described herein, wherein the human embryonic kidney cells were transfected with human mGluR5. The compounds in Table 1 were synthesized with methods identical or analogous to those shown herein. The requisite starting materials were commercially available, described in the literature, or readily synthesized by one skilled in the art of organic synthesis. The compound number given in Table I corresponds to the compound number in Table II and the structure given therein.
Human mGluR5a cDNA in pCMV6-XL6 mammalian expression plasmid was purchased from OriGene Technologies, Inc. (catalogue number SC326357) and subcloned into pcDNA3.1(−). Human embryonic kidney (HEK) 293A cells were then transfected with human mGluR5a pcDNA3.1(−) using LipofectAmine-2000 (Invitrogen) and monoclones were selected and tested for functional response using a Ca^2+ mobilization assay. Monoclones were named for the species (“H” for human) plus the location on the plate (e.g. “10H”).
HEK cells transfected with the human mGluR5a receptor (H10H or H12H cell line) were plated at 15,000 cells/well in clear-bottomed poly-D-lysine-coated assay plates (BD Falcon) in glutamate-glutamine-free growth medium and incubated overnight at 37° C. and 5% CO2.

T1 sequence (P41594 21-1180 isoform P41594-2 limits assumed): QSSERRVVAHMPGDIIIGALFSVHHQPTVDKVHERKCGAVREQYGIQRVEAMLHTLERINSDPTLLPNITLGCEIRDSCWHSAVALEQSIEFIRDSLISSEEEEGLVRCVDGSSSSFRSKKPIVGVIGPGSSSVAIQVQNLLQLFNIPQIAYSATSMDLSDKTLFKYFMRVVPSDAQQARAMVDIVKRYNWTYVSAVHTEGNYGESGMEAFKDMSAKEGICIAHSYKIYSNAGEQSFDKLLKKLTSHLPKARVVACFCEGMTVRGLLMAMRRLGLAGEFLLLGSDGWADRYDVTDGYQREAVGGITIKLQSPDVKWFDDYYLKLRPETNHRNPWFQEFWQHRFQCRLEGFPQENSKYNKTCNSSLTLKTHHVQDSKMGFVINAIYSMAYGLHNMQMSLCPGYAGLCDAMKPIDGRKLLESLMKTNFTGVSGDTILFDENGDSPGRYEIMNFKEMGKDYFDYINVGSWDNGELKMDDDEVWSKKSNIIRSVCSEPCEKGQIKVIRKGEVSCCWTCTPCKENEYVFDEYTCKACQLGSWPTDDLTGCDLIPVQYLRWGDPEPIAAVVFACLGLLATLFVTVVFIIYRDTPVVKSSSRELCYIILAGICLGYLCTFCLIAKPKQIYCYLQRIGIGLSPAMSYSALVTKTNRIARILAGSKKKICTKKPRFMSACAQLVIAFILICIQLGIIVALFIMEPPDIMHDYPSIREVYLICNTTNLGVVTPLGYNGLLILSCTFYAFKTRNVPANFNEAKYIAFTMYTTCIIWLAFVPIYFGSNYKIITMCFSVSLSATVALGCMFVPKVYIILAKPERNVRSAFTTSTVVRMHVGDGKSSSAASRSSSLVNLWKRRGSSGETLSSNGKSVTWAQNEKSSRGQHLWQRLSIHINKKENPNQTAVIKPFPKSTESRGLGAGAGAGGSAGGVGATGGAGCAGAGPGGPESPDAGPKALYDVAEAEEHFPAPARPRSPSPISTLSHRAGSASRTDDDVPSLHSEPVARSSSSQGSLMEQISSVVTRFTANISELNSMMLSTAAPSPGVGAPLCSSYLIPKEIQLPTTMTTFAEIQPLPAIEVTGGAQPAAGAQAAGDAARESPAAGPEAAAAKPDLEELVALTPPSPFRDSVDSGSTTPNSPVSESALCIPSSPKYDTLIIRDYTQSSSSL

SMILES: Cc1cccc(OCc2cc3n(n2)CCN(CC2CC2)C3=O)c1 [Example 168]
- pEC50: 5.18
- EC50: 6610 nM
- Emax (%): 30%

SMILES: N#Cc1cccc(OCc2cc3n(n2)CCN(c2ccc(F)cc2)C3=O)c1 [Example 169]
- pEC50: 6.51
- EC50: 309 nM
- Emax (%): 62%

SMILES: O=C1c2cc(COc3cccnc3)nn2CCN1CC1CC1 [Example 170]
- pEC50: <5.00
- EC50: > 10000 nM
- Emax (%): 45%

SMILES: O=C1c2cc(COc3ccccn3)nn2CCN1c1ccc(F)cn1 [Example 172]
- pEC50: 5.99
- EC50: 1020 nM
- Emax (%): 64%

SMILES: Cc1cccc(OCc2cc3n(n2)CCN(c2ccc(F)cc2)C3=O)n1 [Example 173]
- pEC50: <5.00
- EC50: > 10000 nM
- Emax (%): 31%

SMILES: Cc1cc(OCc2cc3n(n2)CCN(c2ccc(F)cc2)C3=O)cc(C)n1 [Example 175]
- EC50: > 30200 nM
- Emax: 22%

SMILES: O=C1c2cc(COc3ccncc3)nn2CCN1c1ccc(F)cn1 [Example 176]
- pEC50: 5.75
- EC50: 1780 nM
- Emax (%): 64%

SMILES: Cc1cccc(OCc2cc3n(n2)CCN(c2ccc(F)cn2)C3=O)c1 [Example 177]
- pEC50: 6.42
- EC50: 380 nM
- Emax (%): 61%

SMILES: Cc1cc(OCc2cc3n(n2)CCN(c2ccc(F)cc2)C3=O)ncc1F [Example 180]
- pEC50: 5.77
- EC50: 1700 nM
- Emax (%): 53%

SMILES: Cc1nccc(OCc2cc3n(n2)CCN(c2ccc(F)cc2)C3=O)n1 [Example 182]
- pEC50: 5.49
- EC50: 3240 nM
- Emax (%): 36%

SMILES: Cc1ccnc(OCc2cc3n(n2)CCN(c2ccc(F)cc2)C3=O)c1 [Example 184]
- pEC50: 6.45
- EC50: 355 nM
- Emax (%): 61%

SMILES: Cc1ccnc(OCc2cc3n(n2)CCN(c2ccc(F)cc2)C3=O)n1 [Example 186]
- pEC50: <4.52
- EC50: > 30200 nM
- Emax (%): 30%

SMILES: O=C1c2cc(COc3cccc(F)c3)nn2CCN1c1ccc(F)cc1 [Example 188]
- pEC50: 6.83
- EC50: 148 nM
- Emax (%): 66%

SMILES: Cc1ccc(OCc2cc3n(n2)CCN(c2ccc(F)cc2)C3=O)cc1 [Example 192]
- EC50: 240 nM
- Emax: 57%

SMILES: Cc1cc(OCc2cc3n(n2)CCN(c2ccc(F)cc2)C3=O)ncn1 [Example 196]
- pEC50: <5.00
- EC50: > 10000 nM
- Emax (%): 37%

SMILES: Cc1ccnc(OCc2cc3n(n2)CCN(c2ccc(F)cc2)C3=O)c1F [Example 198]
- pEC50: 5.76
- EC50: 1740 nM
- Emax (%): 61%

SMILES: O=C1c2cc(COc3ccncn3)nn2CCN1c1ccc(F)cc1 [Example 199]
- pEC50: 5.43
- EC50: 3720 nM
- Emax (%): 60%

SMILES: O=C1c2cc(COc3ccnnc3)nn2CCN1c1ccc(F)cc1 [Example 201]
- pEC50: <5.00
- EC50: > 10000 nM
- Emax (%): 46%

SMILES: Cc1cc(N2CCn3nc(COc4ccccn4)cc3C2=O)ccc1F [Example 203]
- pEC50: 6.78
- EC50: 166 nM
- Emax (%): 66%

SMILES: Cc1nc(N2CCn3nc(COc4ccccn4)cc3C2=O)ccc1F [Example 205]
- pEC50: 6.41
- EC50: 389 nM
- Emax (%): 55%

SMILES: CC(C)c1cccc(N2CCn3nc(COc4ccccn4)cc3C2=O)n1 [Example 207]
- pEC50: 6.36
- EC50: 437 nM
- Emax (%): 69%

SMILES: COc1ccc(F)c(N2CCn3nc(COc4ccccn4)cc3C2=O)n1 [Example 208]
- pEC50: 6.46
- EC50: 347 nM
- Emax (%): 69%

SMILES: COc1nc(N2CCn3nc(COc4ccccn4)cc3C2=O)ncc1F [Example 209]
- EC50: 525 nM
- Emax: 62%

SMILES: COc1nccc(N2CCn3nc(COc4ccccn4)cc3C2=O)n1 [Example 210]
- EC50: 2140 nM
- Emax: 50%

SMILES: COc1cncc(N2CCn3nc(COc4ccccn4)cc3C2=O)n1 [Example 213]
- EC50: 660 nM
- Emax: 56%

SMILES: COc1ccccc1N1CCn2nc(COc3ccccn3)cc2C1=O [Example 214]
- pEC50: 5.97
- EC50: 1100 nM
- Emax (%): 54%

SMILES: Cc1cccc(N2CCn3nc(COc4ccccn4)cc3C2=O)c1 [Example 216]
- pEC50: 6.39
- EC50: 410 nM
- Emax (%): 63%

SMILES: Cc1ccccc1N1CCn2nc(COc3ccccn3)cc2C1=O [Example 219]
- pEC50: 6.59
- EC50: 260 nM
- Emax (%): 67%

SMILES: Cc1ccc(N2CCn3nc(COc4ccc(F)cc4)cc3C2=O)cc1 [Example 222]
- pEC50: 7.11
- EC50: 76 nM
- Emax (%): 64%

SMILES: Cc1cccc(N2CCn3nc(COc4ccc(F)cc4)cc3C2=O)c1 [Example 224]
- pEC50: 7.02
- EC50: 95 nM
- Emax (%): 72%

SMILES: Cc1cc(N2CCn3nc(COc4ccc(F)cc4)cc3C2=O)ccc1F [Example 225]
- EC50: 61 nM
- Emax: 58%

SMILES: COc1nccnc1N1CCn2nc(COc3ccc(F)cc3)cc2C1=O [Example 226]
- pEC50: 6.08
- EC50: 830 nM
- Emax (%): 57%

SMILES: COc1nccc(N2CCn3nc(COc4ccc(F)cc4)cc3C2=O)n1 [Example 227]
- pEC50: 6.59
- EC50: 260 nM
- Emax (%): 62%

SMILES: COc1cc(N2CCn3nc(COc4ccc(F)cc4)cc3C2=O)ccc1F [Example 228]
- EC50: 120 nM
- Emax: 65%

SMILES: COc1nc(N2CCn3nc(COc4ccc(F)cc4)cc3C2=O)ncc1C [Example 230]
- pEC50: 6.78
- EC50: 170 nM
- Emax (%): 72%

SMILES: COc1cncc(N2CCn3nc(COc4ccc(F)cc4)cc3C2=O)n1 [Example 231]
- pEC50: 6.92
- EC50: 110 nM
- Emax (%): 67%

SMILES: Cc1cccc(OCc2cc3n(n2)CC(C)N(c2ccc(F)cc2)C3=O)c1 (stereo not drawn) [Example 243]
- pEC50: 7.05
- EC50: 89 nM
- Emax (%): 68%

SMILES: CC1Cn2nc(COc3cccc(F)c3)cc2C(=O)N1c1ccc(F)cc1 (stereo not drawn) [Example 244]
- pEC50: 7.25
- EC50: 56 nM
- Emax (%): 78%

SMILES: CC1Cn2nc(COc3ccc(F)cc3)cc2C(=O)N1c1ccc(F)cc1 (stereo not drawn) [Example 245]
- pEC50: 6.86
- EC50: 138 nM
- Emax (%): 74%

SMILES: C[C@@H]1Cn2nc(COc3cccc(C#N)c3)cc2C(=O)N1c1ccc(F)cc1 [Example 246]
- EC50: 214 nM
- Emax: 69%

SMILES: CC1Cn2nc(COc3ccccn3)cc2C(=O)N1c1ccc(F)cc1 (stereo not drawn) [Example 247]
- pEC50: 6.23
- EC50: 589 nM
- Emax (%): 73%

SMILES: CC1Cn2nc(COc3ccccc3)cc2C(=O)N1 (stereo not drawn) [Example 255]
- pEC50: <5.00
- EC50: > 10000 nM
- Emax (%): 46%

SMILES: O=C1c2c(Cl)c(COc3ccccc3)nn2CCN1CC1CC1 [Example 259]
- pEC50: <4.52
- EC50: > 30200 nM
- Emax (%): 14%

SMILES: O=C1c2c(Cl)c(COc3ccccc3)nn2CCN1c1ccc(F)cc1 [Example 260]
- pEC50: <4.52
- EC50: > 30200 nM
- Emax (%): 17%

SMILES: Cc1c(COc2ccccc2)nn2c1C(=O)N(CC1CC1)CC2 [Example 261]
- EC50: > 30200 nM
- Emax: 23%

SMILES: Cc1c(COc2ccccc2)nn2c1C(=O)N(c1ccc(F)cc1)CC2 [Example 262]
- pEC50: 6.05
- EC50: 891 nM
- Emax (%): 32%

SMILES: O=C1c2cc(COc3ccccc3)nn2CC(CO)N1c1ccc(F)cc1 (stereo not drawn) [Example 265]
- pEC50: 5.65
- EC50: 2240 nM
- Emax (%): 60%

SMILES: O=C1c2cc(COc3ccccc3)nn2CC(CF)N1c1ccc(F)cc1 (stereo not drawn) [Example 266]
- pEC50: 6.94
- EC50: 115 nM
- Emax (%): 65%
